In patent US20080254439A1, “Plant Extract and Use Thereof as a Cryoprotective Agent” (priority 2005, published 2008):

What was measured:
isolated rat hepatocytes = experiment: Viability of suspensions of rat hepatocytes after freezing, calcein/PI test by flow cytometry; type: cell-based; conditions: 7 days of freezing; 1.5×10^6 cells/ml; 20 mg protein/extract or 15% DMSO in WME; FIG. 1
Procedure: Hepatocytes were isolated from male Sprague-Dawley rats (120-180 g), obtained from Charles River Canada (Saint-Constant, QC), in a two-step collagenase digestion technique (13; 14). […] Cell viability was evaluated by flow cytometry (FACScan™, Becton Dickinson, Oakville, ON) with 2 μM PI (16).
Cryopreservation of isolated hepatocytes. Immediately after isolation, the hepatocyte suspension was added to a mixture of ice-cold WME medium supplemented with 10% FBS and non-acclimated (NA) or CA wheat protein extracts (WPEs) in cold cryovials. […] The tubes containing cells were then frozen at a cooling rate of 1° C./min in a controlled freezing container (Nalgene, Rochester, N.Y.) to −80° C. for one day, and then transferred to liquid nitrogen.
Viability assays. After freeze/thaw cycles, hepatocyte suspensions were stained with the fluorescent probes 4 μM calcein and 2 μM PI in WME medium for 5 minutes. The samples were analyzed by flow cytometry (excitation at 488 nm) using a Becton Dickinson FACScan™. The number of live cells expressing green fluorescence of calcein and the number of dead cells expressing red fluorescence of PI were determined with Cell Quest™ software (Becton Dickinson, Oakville, ON).

rat hepatocytes [1] = experiment: Viability of seeded thawed hepatocytes by LDH release; type: cell-based; conditions: after 24 h in culture; cryopreserved 7 days; FIG. 2
rat hepatocytes [2] = experiment: Plating efficiency by LDH activity; type: cell-based; conditions: culture period 3 hours
Procedure: Thawing of cryopreserved hepatocytes. The frozen hepatocytes were thawed quickly by gentle agitation in a 37° C. water bath. Viability assays were performed on the hepatocyte suspension. For adherence and metabolic assays, the hepatocyte suspension was diluted 10-fold by addition of cold WME medium, immediately after thawing. […] After centrifugation (4° C., 50 g, 2 min), hepatocytes were suspended in 10 ml of WME medium. Hepatocytes were washed twice as above, then suspended at 3.5×10^5/ml in WME and cultured in tissue culture plates in WME medium supplemented with insulin and gentamicin in a humidified atmosphere of 5% CO2 and 95% air at 37° C. After 3 h, the medium was changed and cells were incubated overnight in L-15 medium supplemented with insulin and gentamicin. Plating efficiency. Plating efficiency was determined by measuring the LDH activity in cells prior to seeding and in 3 and 24 h-old cultures. Plating efficiency was defined as the LDH activity in 24 h-old cultures divided by the LDH activity in pre-culture cells.

rat hepatocytes [3] = experiment: Adherence and cellular morphology by confocal microscopy; type: cell-based; conditions: 24 h after seeding, FIG. 3
Procedure: Adherence and cellular morphology. Adherence and cellular morphology were evaluated by confocal microscopy. For the confocal microscopy observations, tissue culture plates coated with collagen were used. All analyses were carried out using the confocal microscope MRC1024 from BioRad (Microscience, Cambridge, Mass.) equipped with an argon laser (excitation at 488 nm) combined with an inverted microscope Eclipse Model TE 3000 (Nikon, Montreal, QC) with objectives of 40× Hoffman.

rat hepatocytes [4] = experiment: Albumin secretion by sandwich ELISA; type: cell-based; conditions: after 4 days in culture; FIG. 4A
Procedure: Determination of albumin secretion. Albumin secretion from hepatocytes was quantified every 24 h, until 96 h, in different hepatocyte culture media by the sandwich enzyme-linked immunosorbent assay (ELISA) according to Uotila et al. (19), with minor modifications (20). Briefly, 96-well plates (Nunc, Napierville, Ill.) were coated with anti-rat albumin rabbit antiserum (1 μg/ml). The plates were incubated for 30 min at room temperature (RT), then at 4° C. overnight, washed with phosphate buffered saline (PBS), blocked for 30 min at RT with 5% FBS in PBS, and then rewashed with PBS. Serial dilutions of sample and albumin standard were added (200 μl/well). The plates were incubated for III at RT and washed with PBS supplemented with 0.05% Tween-20 (PBS-T). Thereafter, the secondary antibody (peroxidase-conjugated anti-rat albumin; 2 μg/ml) was added and the plates were incubated for 1 h at RT. After 3 washings with PBS-T, the plates were incubated with the substrate o-phenylendiamine (OPND) (0.1 M NaH2PO4, 1 mg/ml OPND, 0.4 μl/ml H2O2) for 30 min at RT in the dark. The reaction was stopped with 4 M H2SO4. Albumin concentrations were determined at 550 nm using a standard curve ranging from 0 to 250 ng/dl of rat albumin using an ELISA reader ([sequence]luor Plus™, Tecan, Calif.).

rat hepatocytes [5] = experiment: Ammonium detoxification to urea (urea determination); type: cell-based; conditions: after 4 days in culture; FIG. 4B
Procedure: Urea determination. To evaluate the hepatocyte-mediated biotransformation of ammonia to urea, seeded hepatocytes were exposed to L-15 culture medium containing 10 mM NH4Cl. Samples of media were collected at the beginning and after 24 h intervals of exposure to ammonia, during 3 days. Urea concentration in the samples was measured calorimetrically using the urea nitrogen reagent set (BioTron Diagnostics, Hemet, Calif.) and an ELISA reader at 540 nm. Concentrations of urea were determined using a standard curve ranging from 0 to 45 mg/dl of urea. The results are presented as μg urea/10^6 cells.

CYP1A1 = experiment: EROD assay after 24 h induction with benzo-a-pyrene in cryopreserved hepatocytes; type: cell-based, rat; conditions: 48 h after seeding, FIG. 5A
Procedure: (§1) Enzymatic activity and protein expression of cytochrome P450 isoforms. CYP1A1 and 2B enzymatic activities were measured in hepatocyte cultures induced with benzo-a-pyrene (10 μM). Cells were washed 2 times with PBS and the substrates EROD (8 μM) or PROD (17 μM) (λexc: 530 nm; λem: 585 nm) were added to the culture dishes and incubated for 1 h. The supernatant (300 μl) was mixed with 200 μl of ETOH and the activity in 200 μl of the mixture was measured using an ELISA reader at 585 nm. Enzymatic activity was determined using a standard curve ranging from 0 to 200 μM of resorufin.

CYP2B = experiment: PROD assay after 24 h induction with benzo-a-pyrene in cryopreserved hepatocytes; type: cell-based, rat; conditions: 48 h after seeding, FIG. 5A
Procedure: as §1

C[S+](C)[O-] [DMSO, dimethyl sulfoxide]
Viability of rat hepatocytes after freezing (isolated rat hepatocytes): 62.5% | Viability (LDH) of thawed hepatocytes in culture (rat hepatocytes [1]): 60.2% | Plating efficiency (rat hepatocytes [2]): 64.9 ± 1.7% | Cell-to-cell contacts (rat hepatocytes [3]): no cell-cell contacts were detected | Albumin secretory activity maintained (rat hepatocytes [4]): 48% | Initial detoxification activity maintained (urea production) (rat hepatocytes [5]): 16% | Relative activity of P450 CYP1A1 compared to fresh hepatocytes (CYP1A1): decreased slightly | Relative activity of P450 CYP2B compared to fresh hepatocytes (CYP2B): decreased slightly
